PubChem BioAssay AID2060500 (Molecular Pharmacology Branch, DTP, NCI, 2025)

System: 596521-263-R-J1-PDC complex spheroids, viability % of control
Assay: Anticancer human tumor 596521-263-R-J1-PDC patient-derived soft tissue sarcoma cell line growth inhibition [GQUAD]
Settings: for IC50: curve of first compound; for viability, T/C: stronger effect = lower value
Procedure, shortened: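 Viability of tumor cells grown as complex spheroids with endothelial and stromal cells, exposed to drug combinations. Top concentration at or near clinical Cmax (else 10 microM), diluted in half-log increments.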

[1] = second compound 0.0316 µM, first compound 0.0316 µM
[2] = second compound 0.0316 µM, first compound 0.1 µM
[3] = second compound 0.0316 µM, first compound 0.316 µM
[4] = second compound 0.0316 µM, first compound 1 µM
[5] = second compound 0.0316 µM, first compound 3.16 µM
[6] = second compound 0.0316 µM, first compound 10 µM
[7] = second compound 0.1 µM, first compound 0.0316 µM
[8] = second compound 0.1 µM, first compound 0.1 µM
[9] = second compound 0.1 µM, first compound 0.316 µM
[10] = second compound 0.1 µM, first compound 1 µM
[11] = second compound 0.1 µM, first compound 3.16 µM
[12] = second compound 0.1 µM, first compound 10 µM
[13] = second compound 0.316 µM, first compound 0.0316 µM
[14] = second compound 0.316 µM, first compound 0.1 µM
[15] = second compound 0.316 µM, first compound 0.316 µM
[16] = second compound 0.316 µM, first compound 1 µM
[17] = second compound 0.316 µM, first compound 3.16 µM
[18] = second compound 0.316 µM, first compound 10 µM
[19] = second compound 1 µM, first compound 0.0316 µM
[20] = second compound 1 µM, first compound 0.1 µM
[21] = second compound 1 µM, first compound 0.316 µM
[22] = second compound 1 µM, first compound 1 µM
[23] = second compound 1 µM, first compound 3.16 µM
[24] = second compound 1 µM, first compound 10 µM
[25] = second compound 3.16 µM, first compound 0.0316 µM
[26] = second compound 3.16 µM, first compound 0.1 µM
[27] = second compound 3.16 µM, first compound 0.316 µM
[28] = second compound 3.16 µM, first compound 1 µM
[29] = second compound 3.16 µM, first compound 3.16 µM
[30] = second compound 3.16 µM, first compound 10 µM
[31] = second compound 10 µM, first compound 0.0316 µM
[32] = second compound 10 µM, first compound 0.1 µM
[33] = second compound 10 µM, first compound 0.316 µM
[34] = second compound 10 µM, first compound 1 µM
[35] = second compound 10 µM, first compound 3.16 µM
[36] = second compound 10 µM, first compound 10 µM
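Note: spheroids exposed to drugs for 7 days before viability reading.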
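Throughout, for viability, T/C: 100% = DMSO vehicle control viability.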

C#Cc1c(F)ccc2cc(O)cc(-c3ncc4c(N5CC6CCC(C5)N6)nc(OCC56CCCN5CC(F)C6)nc4c3F)c12 (stereo unspecified) + Cc1cnc(CNC(=O)c2c(=O)c3ccc(N4CCCN(C)CC4)nc3n3c2sc2ccccc23)cn1
IC50 (second compound 0.0316 µM): > 10 µM
IC50 (second compound 0.1 µM): > 10 µM
IC50 (second compound 0.316 µM): > 10 µM
IC50 (second compound 1 µM): > 10 µM
IC50 (second compound 3.16 µM): > 10 µM
IC50 (second compound 10 µM): < 0.0316 µM
viability, T/C [1]: 93.2%
viability, T/C [2]: 94.4%
viability, T/C [3]: 101%
viability, T/C [4]: 88%
viability, T/C [5]: 98.5%
viability, T/C [6]: 90.7%
viability, T/C [7]: 92.9%
viability, T/C [8]: 74.9%
viability, T/C [9]: 76.7%
viability, T/C [10]: 93.5%
viability, T/C [11]: 90.8%
viability, T/C [12]: 82.9%
viability, T/C [13]: 72.5%
viability, T/C [14]: 74.6%
viability, T/C [15]: 70.4%
viability, T/C [16]: 93.3%
viability, T/C [17]: 91.8%
viability, T/C [18]: 66.7%
viability, T/C [19]: 60.7%
viability, T/C [20]: 60.8%
viability, T/C [21]: 61.4%
viability, T/C [22]: 66.3%
viability, T/C [23]: 67.4%
viability, T/C [24]: 52.5%
viability, T/C [25]: 56.4%
viability, T/C [26]: 49.2%
viability, T/C [27]: 49.8%
viability, T/C [28]: 57%
viability, T/C [29]: 50.9%
viability, T/C [30]: 54%
viability, T/C [31]: 36.3%
viability, T/C [32]: 14.9%
viability, T/C [33]: 39.6%
viability, T/C [34]: 40.7%
viability, T/C [35]: 36.9%
viability, T/C [36]: 0.57%

CCCS(=O)(=O)Nc1ccc(F)c(C(=O)c2c[nH]c3ncc(-c4ccc(Cl)cc4)cc23)c1F + Cc1cnc(CNC(=O)c2c(=O)c3ccc(N4CCCN(C)CC4)nc3n3c2sc2ccccc23)cn1
IC50 (second compound 0.0316 µM): 8.29 µM
IC50 (second compound 0.1 µM): 7.34 µM
IC50 (second compound 0.316 µM): 6.68 µM
IC50 (second compound 1 µM): 5.02 µM
IC50 (second compound 3.16 µM): 4.25 µM
IC50 (second compound 10 µM): < 0.0316 µM
viability, T/C [1]: 100%
viability, T/C [2]: 90.1%
viability, T/C [3]: 98.1%
viability, T/C [4]: 97.5%
viability, T/C [5]: 78.5%
viability, T/C [6]: 44.4%
viability, T/C [7]: 90.6%
viability, T/C [8]: 85.5%
viability, T/C [9]: 95.7%
viability, T/C [10]: 79.4%
viability, T/C [11]: 83.6%
viability, T/C [12]: 37.5%
viability, T/C [13]: 81.2%
viability, T/C [14]: 84.6%
viability, T/C [15]: 80.1%
viability, T/C [16]: 71.7%
viability, T/C [17]: 71.3%
viability, T/C [18]: 39.5%
viability, T/C [19]: 64.2%
viability, T/C [20]: 65.8%
viability, T/C [21]: 67%
viability, T/C [22]: 61.5%
viability, T/C [23]: 53.3%
viability, T/C [24]: 43.1%
viability, T/C [25]: 57%
viability, T/C [26]: 50.3%
viability, T/C [27]: 62.8%
viability, T/C [28]: 52%
viability, T/C [29]: 55.2%
viability, T/C [30]: 35.8%
viability, T/C [31]: 46.5%
viability, T/C [32]: 27.8%
viability, T/C [33]: 50.4%
viability, T/C [34]: 46.1%
viability, T/C [35]: 24.7%
viability, T/C [36]: 0.21%

O=c1[nH]cc(F)c(=O)[nH]1 + Cc1cnc(CNC(=O)c2c(=O)c3ccc(N4CCCN(C)CC4)nc3n3c2sc2ccccc23)cn1
IC50 (second compound 0.0316 µM): > 10 µM
IC50 (second compound 0.1 µM): > 10 µM
IC50 (second compound 0.316 µM): > 10 µM
IC50 (second compound 1 µM): > 10 µM
IC50 (second compound 3.16 µM): > 10 µM
IC50 (second compound 10 µM): < 0.0316 µM
viability, T/C [1]: 109%
viability, T/C [2]: 112%
viability, T/C [3]: 100%
viability, T/C [4]: 99.7%
viability, T/C [5]: 111%
viability, T/C [6]: 84.7%
viability, T/C [7]: 100%
viability, T/C [8]: 84.9%
viability, T/C [9]: 89.4%
viability, T/C [10]: 88.5%
viability, T/C [11]: 104%
viability, T/C [12]: 87.4%
viability, T/C [13]: 78.9%
viability, T/C [14]: 82.8%
viability, T/C [15]: 69.5%
viability, T/C [16]: 72.5%
viability, T/C [17]: 82.7%
viability, T/C [18]: 76.7%
viability, T/C [19]: 68.2%
viability, T/C [20]: 66%
viability, T/C [21]: 71.3%
viability, T/C [22]: 72.2%
viability, T/C [23]: 76%
viability, T/C [24]: 69.9%
viability, T/C [25]: 54.8%
viability, T/C [26]: 59.9%
viability, T/C [27]: 51.3%
viability, T/C [28]: 49.8%
viability, T/C [29]: 63.2%
viability, T/C [30]: 51.4%
viability, T/C [31]: 49%
viability, T/C [32]: 49.6%
viability, T/C [33]: 49.2%
viability, T/C [34]: 49.4%
viability, T/C [35]: 54.7%
viability, T/C [36]: 47.6%
